In US7781580B2, “Stilbene derivatives as new cancer therapeutic agents” (Virginia Commonwealth University, priority 2007, dated 2010):
Like-named read-outs stand apart in the source and are kept apart here.

Experiments:
[1] = test system: UCI101 cells; experiment: immunofluorescent staining of tubulin, UCI101; format: cell-based; conditions: CA4 10 nM, stilbene 4a 100 nM, 5b 3 μM; 16 hours
From the text: Nuclei were stained with DAPI.

[2] = test system: MDA-MB231 breast cancer cells; experiment: Alamar Blue cell growth inhibition, MDA-MB231; format: cell-based
Protocol: Cell growth was measured by Alamar Blue™ staining and the percentage of cell growth inhibition was calculated and compared with control cells that were treated with 0.1% DMSO, the vehicles for the stilbene compounds.
(§1) Various cancer cell lines were grown in 96-well plates for drug sensitivity assays. Once cells achieved 50% confluence, the incubation media was changed to the same cell growth media with different concentrations of the tested compounds or vehicle alone. Cells were then incubated for 48 hours before the cell growth inhibition study. To determine the degree of cell growth inhibition, 1/10 volume of Alamar Blue™ solution was added to each well and optical density (OD) at 570 and 600 nm was determined. The percentage of growth inhibition was calculated according to the manufacturer's formula as follows: The percentage of growth is [(117216×A570)−(80586×A600)]/[(117216×A^o570)−(80586×A^o600)]×100. In this formula, A570 is the absorbance of the treated samples at 570 nm; A600 is the absorbance of the treated samples at 600 nm; A^o570 is the absorbance of the […] samples at 570 nm; and A^o600 is the absorbance of the untreated samples at 600 nm. The two constants, 117216 and 80586, are the extinction coefficients of Alamar Blue™ at 570 and 600 nm respectively. Each concentration was repeated in triplicate to minimize the error.
(§2) We first tested the cytotoxic effect of various stilbene derivatives for their in vitro efficacy of suppressing tumor cell proliferation. Cells were first plated in 96-well plates at 50% confluence and treated with 0, 0.01, 0.03, 0.1, 0.3, 1.0, 3.0, 10 μM concentrations of stilbene derivatives for 48 hours in triplicate. Alamar Blue™ reagent was added into each well at 1/10 volume and incubated for 2 hours before quantification of the absorbance at 570 and 600 nm.

[3] = test system: Chk2−/− cells; experiment: cell cycle analysis, Chk2-/- MDA-MB231 derivative; format: cell-based; conditions: 16 hours
Protocol: (§3) Cells were treated with various concentrations of stilbene 4a or CA4 for 16 hours followed by PI staining and FACscan analysis. […] A unique feature of stilbene 4a was noted when cells were treated with 30 nM.
(§4) Due to the structural similarity between stilbene 4a and CA4, we investigated the difference in the biological activity of these two compounds in MDA-MB231 breast cancer cells and their Chk2−/− derivatives. […] MDA-MB231 cells were treated with 10 nM stilbene 4a or 1 nM CA4. […] However, a difference in cell cycle change was observed following treatment with 30 nM of stilbene 4a versus 3 nM of CA4. […] This was also the case for cells treated with 100 nM stilbene 4a. A significant subG1/0 population was also noted. […] One possible effect could be a DNA damage response, which is a common mechanism of multiple chemotherapeutic agents but not one of pure microtubule-interfering agents such a paclitaxel or vincristine. […] We then obtained conditional Chk1−/− and Chk2−/− cells, which were derived from the same MDA-MB231 cells for the same flow cytometry analysis. […] In contrast, Chk2−/− cells were more sensitive to stilbene 4a. […] This mechanism is not obvious in higher drug concentrations at which the G2 arrest from microtubule interference is dominant. Therefore, in addition to their microtubule interfering effect, stilbenes have another mechanism to induce cell death. Thus, the use of a Chk2 inhibitor in combination with stilbenes may be a viable approach to enhancing the beneficial therapeutic effects of stilbenes.

[4] = clinical studies; cited from earlier work
[5] = test system: MDA-MB231 breast cancer cells; experiment: cell cycle analysis, MDA-MB231; format: cell-based; conditions: 16 hours
Protocol: as §3, §4

[6] = test system: UCI101 ovarian cancer cells; experiment: Alamar Blue cell growth inhibition, UCI101; format: cell-based; conditions: UCI101, 48 hours
Protocol: Cell growth was measured by AlamarBlue™ staining and the percentage of cell growth inhibition was calculated and compared with the control cells that were treated with 0.1% DMSO, the vehicles for the stilbene compounds.
Cells were treated with the tested drug for 2 days before analysis of cell growth by Alamar Blue™ staining. Cells treated with 0.1% DMSO were used as control and set as 100%.
(a) In vitro sensitivity of UCI101 cells toward three potential stilbene prodrugs, 5a-c, was tested in 96-well plates using Alamar Blue™ assays to determine cell growth inhibition. […] (b) 5b induces cell cycle change and apoptosis in UCI101 cells. Cells were incubated with 5b at 1, 3, 10 μM for 16 hours followed by PI staining and flow cytometry analysis. A subG0/1 population, representing apoptotic cells, appeared along with a decrease of the G1/G2 ratio after cells were treated with 3 μM 5b. Higher concentration (10 μM) of 5b completely killed cells, as was the case with stilbene 4a at […]. (c) Cells treated with stilbene 4a and 5b were stained with phospho-histone 3B, a mitotic marker. The positive signals of phospho-histone 3B were shown in green and nuclei were stained with DAPI in blue. […] (d) In vivo efficacy of 5b compared with stilbene 4a. Nude mice were injected with UCI101 ovarian cancer cells and treated with 7 doses of 5b,c or stilbene 4a every 2-3 days. Tumor volume was calculated and plotted against days.
as §1, §2

[7] = test system: Chk1−/− cells; experiment: cell cycle analysis, Chk1-/- MDA-MB231 derivative; format: cell-based
Protocol: as §4

[8] = test system: SNU423 hepatocellular carcinoma cells; experiment: Alamar Blue cell growth inhibition, SNU423; format: cell-based
Method in brief: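 Cells at 50% confluence were treated for 48 h in triplicate with 0-10 μM compound or 0.1% DMSO vehicle. Alamar Blue was added at 1/10 volume for 2 h, and absorbance at 570 and 600 nm gave % growth via the manufacturer's extinction-coefficient formula relative to vehicle controls.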

[9] = test system: MiaPaCa2 pancreatic cancer cells; experiment: Alamar Blue cell growth inhibition, MiaPaCa2; format: cell-based
Protocol: as §1, §2

[10] = test system: MDA-MB231 cells; experiment: immunofluorescent staining of tubulin, MDA-MB231; format: cell-based; conditions: CA4 10 nM, stilbene 4a 100 nM, vincristine 100 nM, 5b 3 μM; 16 hours
From the text: Nuclei were stained with 4′,6-diamidino-2-phenylindole (DAPI). Control cells show the reticular pattern of the microtubule network.

[11] = test system: SKOV3 ovarian cancer cells; experiment: Alamar Blue cell growth inhibition, SKOV3; format: cell-based
Protocol: Cells were incubated with various concentrations of the compounds for 48 hours. Cell growth was measured by Alamar Blue™ staining and the percentage of cell growth inhibition was calculated and compared with the control cells that were treated with 0.1% DMSO, the vehicle for the stilbene compounds.
as §1

[12] = test system: UCI101 ovarian cancer cells; experiment: Western blot of signal transduction events, UCI101; format: cell-based; conditions: 36 hours
Protocol: All these agents are microtubule interfering agents but with different binding sites. Cells were harvested at 0, 4, 8, 16 and 36 hours after drug treatment for Western blot analysis. […] Phosphorylation of both Cdc25C and Cdc2 disappeared after 16 hours and slightly recovered at 36 hours. […] Akt phosphorylation decreased after 16 hours of treatment.
In order to understand the mechanism of resistance of stilbenes, various signal transduction pathways were investigated to examine how cells respond to stilbene treatment. UCI101 ovarian cancer cells were treated with stilbenes 4a, 4c or paclitaxel (Taxol) at 0.1 μM for 0, 4, 8, 16 and 36 hours. Cells were harvested for Western blotting. Changes in the kinases involved in cell cycle progression from G2-M transition were first determined in Cdc2, Cdc25c, and mitotic spindle check point regulator BubR1. […] 36 hours after treatment, rephosphorylation of Cdc2 was observed. […] The higher molecular weight isomer of Cdc25c, the mitotic form, increased at 16 and 36 hours. […] A similar study was then performed with other microtubule interfering agents such as combretastatin A4, 13a and vincristine for comparison. A similar trend was observed among these three microtubule interfering agents (FIG. 18).

[13] = water solubility of stilbene and carbamate prodrug (salts and free base); format: physicochemical
Protocol: Stilbene prodrugs may be made by attaching to a stilbene derivative of interest (e.g. a stilbene derivative with anti-tumor activity), chemical groups (or moieties) that render the stilbene derivative more water soluble than before such a modification is carried out. By “water soluble” we mean that more than 20 mg compound can be fully dissolved in 1 mL of water. Further, the chemical groups that are attached to the stilbene derivative to make the derivative water soluble are labile (i.e. removable) in that, upon exposure to in vitro or in vivo hydrolyzing conditions, the chemical groups are removed or dissociated from the stilbene derivative by hydrolysis, releasing the active, anti-tumor form of the stilbene derivative. The chemical groups which are attached may themselves be biologically active, and are, at least, not biologically injurious to cells or mammals. […] As illustrated, morfolinoethyl-urea, morfolinoethyl-carbamate and triethylene glycol (TEG) groups (5a, 5b, 5c, respectively) may be used for this purpose.

[14] = test system: tumor cell proliferation; experiment: suppression of tumor cell proliferation, cell line not stated; format: cell-based; conditions: read-out: IC50, suppressing tumor cell proliferation
Protocol: as §1

Row | Structure (SMILES) | microtubule pattern [1] | relative potency ([2]; MDA-MB231) | change of effective concentration versus MDA-MB231 [3] | dose above which cardiac toxicity, neurotoxicity and tumor pain were observed [4] | cell cycle change at 10 nM stilbene 4a or 1 nM CA4 [5] | relative potency / activity [6] | sensitivity versus MDA-MB231 [7] | relative potency ([8]; SNU423) | effective concentration, blocking cell proliferation ([8]; SNU423, 48 hours) [µM] | relative potency ([9]; MiaPaCa2) | microtubule pattern [10] | effective concentration ([11]; SKOV) [nM] | effective / active concentration ([11]; SKOV3, 48 hours) [µM] | phosphorylation of Chk1 [12] | water solubility (in words) [13] | IC50 [14] [nM] | effective concentration ([2]; MDA-MB231, 48 hours) | IC50 ([8]; Homo sapiens, SNU-423, 48 h, read-out: IC50 (50% growth inhibition), SNU423, 48 hours) [nM] | effective concentration ([9]; MiaPaCa2, 48 hours) | IC50 ([14]; cell line not stated) [nM]
1 | COc1ccc(/C=C\c2cc(OC)c(OC)c(OC)c2)cc1O [combretastatin A4, (Z)-2-Methoxy-5-[2-(3,4,5-trimethoxy-phenyl)-vinyl]-phenol, reference compound] | complete disruption of microtubules | most effective | decreased by three fold | higher than 68 mg/m^2 | No change was observed | most active compound | more resistant | most potent compound | 0.003 | most effective | did not completely disrupt microtubule formation | 10 | 0.01 | do not cause more phosphorylation of Chk1 |  |  |  |  |  | 
2 | COc1cc(/C=C\c2ccc(OC)cc2N)cc(OC)c1.O=C(O)C(=O)O [4b, (Z)2-[2-(3,5-Dimethoxy-phenyl)-vinyl]-5-methoxy-phenylamine oxalate] |  |  |  |  |  | less active than stilbene 4a |  |  |  |  |  |  |  |  | enhanced by the formation of an oxalate salt | 80 |  |  |  | 
3 | COc1cc(O)cc(/C=C\c2ccc(OC)c(N)c2)c1.Cl [10d, (Z)-3-[2-(3-Amino-4-methoxy-phenyl)-vinyl]-5-methoxy-phenol, hydrochloride] |  |  |  |  |  | less active than stilbene 4a |  |  |  |  |  |  |  |  |  |  | above 0.3 μM | 300 to 1000 | above 0.3 μM | 1000
